The source of these data is PMC3341351, “Down-Regulation of GABAA Receptor via Promiscuity with the Vasoactive Peptide Urotensin II Receptor. Potential Involvement in Astrocyte Plasticity” (PLoS ONE, 2012).

Experiment [1] relates to GABAAR in astrocytes (mono-culture). Briefly: Patch-clamp responsiveness of astrocytes in mono-culture to isoguvacine. Format: cell-based, rat. Particulars: Iso 10^−4 M; n = 31. As to the method:
Primary cultures of astrocytes were prepared as previously described. Briefly, cerebellum from 7-day-old (P7) Wistar rats were collected in DMEM/Ham-F12 (2∶1, v/v) culture medium supplemented with 2 mM glutamine, 1% insulin, 5 mM HEPES, 0.4% D(+)-glucose and 1% of the antibiotic-antimycotic solution. The tissues were disaggregated mechanically with a syringue equipped with a 1-mm gauge needle, and filtered through a 100-µm pore size mesh filter (Falcon, Becton Dickinson, Grenoble, France). Dissociated cells were resuspended in culture medium supplemented with 10% heat-inactivated FBS and seeded in 150-cm^2 culture flasks (Falcon) at a density of 20×10^6 cells/flask. Cells were incubated at 37°C in a humidified atmosphere (5% CO2) and the medium was changed twice a week. When cultures were confluent, the flasks were gently shaken on an orbital shaker at […] for 2 h. Dislodged cells were discarded and a second step of purification was performed at […] for 14–16 h. Remaining adhesive cells were collected by trypsination, centrifuged (800 g, 10 min) and plated in 150-cm^2 flasks. Suspended astrocytes were harvested and seeded in 24-well poly-L-lysine-coated plates. The purity of the cultures was previously assessed by counting the percentage of astrocytes immunostained with GFAP antibodies. The enriched cultures contained >99% astrocytes. […]

The subject of experiment [2] is GABAAR in cerebellar astrocytes (UT co-expressed). Briefly: Whole-cell patch-clamp of isoguvacine (Iso)-evoked depolarization/chloride current in cerebellar astrocytes co-cultured with granule neurons. Format: cell-based, rat. As to conditions: Iso 10^−4 M; n = 78. As for the experimental part: (§1) Primary Cell Culture of astrocytes and astrocyte-neurone co-culture
(§2) Primary cultures of astrocytes were prepared as previously described. Briefly, cerebellum from 7-day-old (P7) Wistar rats were collected in DMEM/Ham-F12 (2∶1, v/v) culture medium supplemented with 2 mM glutamine, 1% insulin, 5 mM HEPES, 0.4% D(+)-glucose and 1% of the antibiotic-antimycotic solution. The tissues were disaggregated mechanically with a syringue equipped with a 1-mm gauge needle, and filtered through a 100-µm pore size mesh filter (Falcon, Becton Dickinson, Grenoble, France). Dissociated cells were resuspended in culture medium supplemented with 10% heat-inactivated FBS and seeded in 150-cm^2 culture flasks (Falcon) at a density of 20×10^6 cells/flask. Cells were incubated at 37°C in a humidified atmosphere (5% CO2) and the medium was changed twice a week. When cultures were confluent, the flasks were gently shaken on an orbital shaker at […] for 2 h. Dislodged cells were discarded and a second step of purification was performed at […] for 14–16 h. Remaining adhesive cells were collected by trypsination, centrifuged (800 g, 10 min) and plated in 150-cm^2 flasks. Suspended astrocytes were harvested and seeded in 24-well poly-L-lysine-coated plates. The purity of the cultures was previously assessed by counting the percentage of astrocytes immunostained with GFAP antibodies. The enriched cultures contained >99% astrocytes.
(§3) For astrocyte-neuron co-culture, granule cell cultures were prepared from cerebella of P7 Wistar rats as described previously. Isolated cells were plated on 14-mm culture dishes coated with poly-L-lysine (5 mM) at a density of 1.5×10^6 cells/dish and incubated at 37°C in a humidified atmosphere (5% CO2) for 1 to 10 days before use. Culture medium consisted of DMEM/Ham's F12 (75%/25%) supplemented with 10% FBS, 2 mM glutamine, 5 µg/ml insulin, 25 mM KCl and 1% of antibiotic-antimycotic solution. Co-cultures are obtained by seeding granule cells (1.5×10^6 cells/ml) on cerebellar astrocytes plated in 24-well plates after 12 hours. Co-cultures are maintained in the specific medium for neuron and incubated at 37°C in an humidified atmosphere (5% CO2) for several days.
(§4) The conventional whole-cell configuration of the patch-clamp technique was used to study the GABA-gated currents in astrocytes and granule neurons, UT stably transfected CHO, CHO-UT, and CHO transiently transfected with diverse variants of UT and GABAAR subunits. After 24-h transfection, cell culture coverslips were placed in a small chamber (1.5 ml) on a stage of a right microscope DMLFSA (Leica, Heidelberg, Germany) and superfused continuously with the following bath solution containing (in mM): NaCl, 150; KCl, 2.5; HEPES, 5; CaCl2, 2; MgCl2, 1; glucose, 10 (pH 7.4 adjusted with NaOH). The patch pipettes were fabricated from 1.5 mm (outer diameter) soft glass tubes on a two-step vertical pipette puller (List-Medical, L/M-3P-A, Darmstadt, Germany). […] ATP and GTP were added to the internal solution used to fill electrode just before recording. All recordings were obtained at RT with cells voltage-clamped at −70 mV. The GABAA receptor agonist isoguvacine was prepared in the extracellular solution and was applied to cells by pneumatic pressure ejection. To prevent desenzitization, isoguvacine was more often ejected during 5 s at 2-min intervals. ATP, GTP, or guanosine 5′-O-(2-thiodiphosphate) (GDPβS) were administered through the patch pipette solution. We investigated the effect of competitive inhibition of GDP-GTP exchange by including GDPβS in the pipette solution (in addition to the normal amount of GTP). For GDPβS and the KIC, immediately following patch rupture, GABA current recordings were performed and the experiment was commenced after an equilibration period of 15 min. […]

Experiment [3] has as its target T1, GABAAR in cerebellar astrocytes (UT co-expressed) (Rattus norvegicus, UniProt P49684).
T1 construct: Astrocytes, recognized by strong GFAP staining show UT immunoreactivity; endogenous in cells; host or cells: primary rat (P7 Wistar) cerebellar astrocytes co-cultured with cerebellar granule neurons
T1 sequence (P49684 1-386): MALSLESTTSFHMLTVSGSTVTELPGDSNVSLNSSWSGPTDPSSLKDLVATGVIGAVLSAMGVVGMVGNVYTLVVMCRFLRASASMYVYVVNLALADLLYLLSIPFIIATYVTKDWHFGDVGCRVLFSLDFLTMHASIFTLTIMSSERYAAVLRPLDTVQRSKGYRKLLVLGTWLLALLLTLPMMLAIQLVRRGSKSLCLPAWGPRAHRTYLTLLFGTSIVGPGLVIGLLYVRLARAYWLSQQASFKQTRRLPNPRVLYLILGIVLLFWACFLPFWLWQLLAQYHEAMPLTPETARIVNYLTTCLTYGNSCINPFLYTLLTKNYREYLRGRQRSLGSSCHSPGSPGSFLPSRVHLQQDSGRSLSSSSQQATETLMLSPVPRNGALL
The description is as above. Type of experiment: cell-based. As to the method:
as §1, §2, §3, §4

Turning to `O=C(O)C1=CCNCC1` [Iso, isoguvacine], in experiment [1], the “Cells responding to isoguvacine, astrocytes in mono-culture” value came to 12%. For the same compound, in experiment [2], the “Cells responding to isoguvacine, astrocytes cultured with granule neurons” value amounted to 48%.
Turning to “UII: Urotensin II, species not stated at that place (rUII in astrocytes, hUII in CHO and human cells)”, in experiment [3] (UII 10^−8 M, in some cells), the Direct current activated result is listed as “activated a small inward current”. Further, in experiment [3] (astrocytes), the “Recovery of the GABAAR current inhibition during washout” value is listed as “hardly recovered during washout”.
